From patent publication US20150005347A1, “NITROGEN-CONTAINING HETEROCYCLIC DERIVATIVE HAVING 2-IMINO GROUP AND PEST CONTROL AGENT INCLUDING THE SAME” (MEIJI SEIKA PHARMA CO., LTD., priority 2012, published 2015)

Experiments:
Type in all cases: in vivo
Laodelphax striatella [1] = assay: Pest control test of Laodelphax striatella, foliar spray on rice seedling; conditions: Laodelphax striatellus, 144 h; foliar treatment at 1.25 ppm; second instar larvae; six days after release; read-out: mortality of larvae
Description: Test Example 6 Pest Control Test of Laodelphax striatella
A drug solution of the compound of the present invention at a predetermined concentration, which had been prepared so as to be a 50% acetone water (0.05% Tween20 available), was foliar sprayed to a rice seedling in pot culture. After an air drying process, second instar larvae were released thereto. Thereafter, the larvae were left to stand in a thermostatic chamber (16 hours of light period-8 hours of dark period) at 25° C. […] Test in duplicate.
(§1) Mortality of larvae(%)={number of dead larvae/(number of survived larvae+number of dead larvae)}×100

Plutella xylostella = Plutella xylostella control test, cabbage leaf disk foliar spray; conditions: for mortality at 100 ppm / mortality at 500 ppm: Plutella xylostella, 72 h, second instar larvae, three days after release, read-out: mortality of larvae; for mortality at 100 ppm: foliar treatment at 100 ppm; for mortality at 500 ppm: foliar treatment at 500 ppm; for % Mortality, Test Example1 Plutella xylostella: foliar treatment
Description: Test Example 1 Plutella xylostella Control Test
(§2) A leaf disk having a diameter of 5.0 cm was cut out from a cabbage in pot culture, and a drug solution of the compound of the present invention at a predetermined concentration, which had been prepared so as to be a 50% acetone water (0.05% Tween20 available), was sprayed to the leaf disk. After an air drying process, second instar larvae were released thereto. Thereafter, the larvae were left to stand in a thermostatic chamber (16 hours of light period-8 hours of dark period) at 25° C. […] Test in duplicate.
mortality larvae(%)={number of dead larvae/(number of survived larvae+number of dead larvae)}×100

Aphis gossypii = assay: Pest control test of Aphis gossypii, cucumber leaf disk foliar spray; conditions: for mortality at 100 ppm / mortality at 500 ppm: Aphis gossypii, 72 h, first instar larvae, three days after release; for mortality at 100 ppm: foliar treatment at 100 ppm, read-out: mortality of larvae; for mortality at 500 ppm: foliar treatment at 500 ppm; for % Mortality, Test Example3 Aphis gossypii: foliar treatment
Description: Test Example 3 Pest Control Test of Aphis gossypii
as §2, with “2.0” for “5.0”, “cucumber” for “cabbage”, “first” for “second”
as §1

Musca domestica = assay: Pest control test of Musca domestica adults, sucrose pledget; conditions: 50 ppm in 40% sucrose liquid; four days after release
Description: Test Example 21 Pest Control Test of Musca domestica
A drug solution of the compound of the present invention, which had been adjusted to be 50 ppm with a 40% sucrose liquid, was adsorbed on a pledget, and the pledget was put into a vial. Two adults reared indoors were released thereto. Thereafter, the adults were left to stand indoors at room temperature of 25° C. […] When two adults were all agonized in death, it was judged to be effective.

Spodoptera litura = assay: Pest control test against Spodoptera litura, cabbage leaf disk foliar spray
Description: Test Example 2 Pest Control Test Against Spodoptera litura
as §2, with “third” for “second”
as §1

[2] = system: Frankliniella occidentalis; assay: Pest control test of Frankliniella occidentalis, kidney bean leaf disk foliar spray
Description: Test Example 7 Pest Control Test of Frankliniella occidentalis
as §2, with “2.8” for “5.0”, “kidney bean” for “cabbage”, “first” for “second”
as §1

[3] = system: Trigonotylus caelestialium; assay: Pest control test of Trigonotylus caelestialium, wheat seedling dipping; conditions: 10 ppm
Description: Test Example 8 Pest Control Test of Trigonotylus caelestialium
Wheat seedling leaves and stems four days after the dissemination of seedlings were dipped for 30 seconds in a drug solution of the compound of the present invention at a predetermined concentration, which had been prepared so as to be a 50% acetone water (0.05% Tween20 available). After an air drying process, the wheat seedling leaves and stems were placed into a glass tube, and two second instar larvae of Trigonotylus caelestialium were released to the same glass tube. After the larvae were released, the tube was lidded to leave the larvae to stand in a thermostatic chamber at 25° C. In order to supply water to the wheat during the test, water was given to the wheat from the bottom of the glass tube.
as §1

[4] = system: imidacloprid susceptible populations of Nilaparvata lugens; assay: Soil irrigation test, imidacloprid susceptible populations of Nilaparvata lugens; conditions: Rate 0.05 mg/pot
Description: (§3) A rice seedling in pot culture was subjected to soil irrigation treatment with a drug solution of the compound of the present invention at a predetermined concentration, which had been prepared so as to be a 10% acetone water. […] Thereafter, the larvae were left to stand in a thermostatic chamber (16 hours of light period-8 hours of dark period) at 25° C. […] The test was performed in duplicate.
as §1
Further, for comparison, the test against some population of Nilaparvata lugens which is highly susceptible to imidacloprid was performed by the same method as described above, and the results thereof are shown in Table 43.
(§4) Further, for the origin of test pests, bugs collected outdoors within the Kumamoto prefecture in 2007 as the drug resistant Nilaparvata lugens, and bugs collected within the Kagoshima prefecture and then successively reared indoors for a long time as the imidacloprid susceptible populations of Nilaparvata lugens were used.

Laodelphax striatella [5] = assay: Pest control test of Laodelphax striatella, soil irrigation treatment of rice seedling; conditions: soil irrigation treatment
Description: <Soil Irrigation Treatment Test>
Test Example 10 Pest Control Test of Laodelphax striatellua
(§5) A rice seedling in pot culture was subjected to soil irrigation treatment with a drug solution of the compound of the present invention at a predetermined concentration, which had been prepared so as to be a 10% acetone water. Three days after the treatment, ten second instar larvae of Laodelphax striatella were each released thereto. Thereafter, the larvae were left to stand in a thermostatic chamber (16 hours of light period-8 hours of dark period) at 25° C. […] The test was performed in duplicate.
as §1

[6] = system: Nilaparvata lugens exhibiting drug resistance to imidacloprid; conditions: soil irrigation
Description: Test Example 18 Pest Control Test of Drug-Resistant Nilaparvata lugens
as §3, §1, §4

Nilaparvata lugens = assay: Pest control test of Nilaparvata lugens, soil irrigation treatment; conditions: soil irrigation treatment
Description: Test Example 12 Pest Control Test of Nilaparvata lugens
as §5, with “Nilaparvata lugens” for “Laodelphax striatella”
as §1

[7] = system: Laodelphax striatella exhibiting drug resistance to fipronil; assay: Soil irrigation test, Laodelphax striatella exhibiting drug resistance to fipronil; conditions: drug resistant populations
Description: Test Example 20 Pest Control Test of Laodelphax striatella
as §3, §1
(§6) In addition, for the origin of test pests, bugs collected within the Kumamoto prefecture in 2006 as the drug resistant Laodelphax striatella, and bugs successively reared indoors for a long time as the susceptible populations of Laodelphax striatella were used.

[8] = system: susceptible populations of Laodelphax striatella; assay: Soil irrigation test, susceptible populations of Laodelphax striatella
Description: as §3, §1
Further, for comparison, the test against a populations of Laodelphax striatella which is highly susceptible to fipronil was performed by the same method as described above, and the results thereof are shown in Table 45.
as §6

[9] = system: Sogatella furcifera exhibiting drug resistance to fipronil; assay: Soil irrigation test, Sogatella furcifera exhibiting drug resistance to fipronil; conditions: drug resistant populations
Description: Test Example 19 Pest Control Test of Sogatella furcifera
as §3, §1
(§7) In addition, for the origin of test pests, bugs collected within the city of Odawara in 2010 as the drug resistant Sogatella furcifera, and bugs collected within the city of Chigasaki in 1970 and then successively reared indoors for a long time as the susceptible populations of Sogatella furcifera were used.

[10] = system: susceptible populations of Sogatella furcifera; assay: Soil irrigation test, susceptible populations of Sogatella furcifera
Description: as §3, §1
Further, for comparison, the test against a populations of Sogatella furcifera which is highly susceptible to fipronil was performed by the same method as described above, and the results thereof are shown in Table 44.
as §7

CN=C(/N=c1\ccccn1Cc1ccc(Cl)nc1)C(F)(F)F [Compound 1-42, N-[1-((6-chloropyridin-3-yl)methyl)pyridin-2(1H)-ylidene]-2,2,2-trifluoro-N′-methylacetimidamide]
mortality at 1.25 ppm (Laodelphax striatella [1]): ≥ 80% | mortality at 100 ppm (Plutella xylostella): ≥ 80% | mortality at 500 ppm (Plutella xylostella): ≥ 80% | mortality at 100 ppm (Aphis gossypii): ≥ 80% | mortality at 500 ppm (Aphis gossypii): ≥ 80% | activity against adults (effective when two adults were all agonized in death) (Musca domestica): all the adults are agonized in death

ON=C(/N=c1\ccccn1Cc1ccc(Cl)nc1)C(F)(F)F [Compound 1-499, N-[1-((6-chloropyridin-3-yl)methyl)pyridin-2(1H)-ylidene]-2,2,2-trifluoro-N′-hydroxyacetimidamide]
mortality at 500 ppm (Spodoptera litura; Spodoptera litura, 72 h, foliar treatment at 500 ppm, third instar larvae, three days after release, read-out: mortality of larvae): ≥ 80% | mortality at 1.25 ppm (Laodelphax striatella [1]): ≥ 80% | mortality at 100 ppm (Plutella xylostella): ≥ 80% | mortality at 500 ppm (Plutella xylostella): ≥ 80% | mortality at 100 ppm (Aphis gossypii): ≥ 80% | mortality at 500 ppm (Aphis gossypii): ≥ 80% | mortality at 500 ppm ([2]; Frankliniella occidentalis, 72 h, foliar treatment at 500 ppm, first instar larvae, three days after release, read-out: mortality of larvae): ≥ 80%

O=C(ON=C(/N=c1\ccccn1Cc1ccc(Cl)nc1)C(F)(F)F)c1ccccc1 [Compound 1-519, N-(benzoyloxy)-N-[1-((6-chloropyridin-3-yl)methyl)pyridin-2(1H)-ylidene]-2,2,2-trifluoroacetimidamide]
mortality at 1.25 ppm (Laodelphax striatella [1]): ≥ 80% | mortality at 100 ppm (Plutella xylostella): ≥ 80% | mortality at 500 ppm (Plutella xylostella): ≥ 80% | mortality at 100 ppm (Aphis gossypii): ≥ 80% | mortality at 500 ppm (Aphis gossypii): ≥ 80%

Fc1cc(Cn2ccccc2=NC(=S)C(F)(F)F)cnc1Cl [Compound 5-20]
% Mortality, Test Example2 Spodoptera litura (Spodoptera litura; foliar treatment, 100 ppm): 60% | % Mortality, Test Example8 Trigonotylus caelestialium [3]: 17% | Insecticidal effects against Nilaparvata lugens (mortality of larvae %), Susceptible populations three days after the treatment [4]: 91% | % Mortality, Test Example1 Plutella xylostella (Plutella xylostella; 5 ppm): 20% | % Mortality, Test Example1 Plutella xylostella (Plutella xylostella; 20 ppm): 100% | % Mortality, Test Example1 Plutella xylostella (Plutella xylostella; 100 ppm): 100% | % Mortality, Test Example3 Aphis gossypii (Aphis gossypii; 1.25 ppm): 55% | % Mortality, Test Example3 Aphis gossypii (Aphis gossypii; 5 ppm): 100% | activity against adults (effective when two adults were all agonized in death) (Musca domestica): all the adults are agonized in death | % Mortality, Test Example 10 Laodelphax striatella (Laodelphax striatella [5]; 0.005 mg/pot): 26% | % Mortality, Test Example 10 Laodelphax striatella (Laodelphax striatella [5]; 0.01 mg/pot): 52% | % Mortality, Test Example 10 Laodelphax striatella (Laodelphax striatella [5]; 0.05 mg/pot): 95% | Insecticidal effects against Nilaparvata lugens (mortality of larvae %), Drug resistant populations three days after the treatment ([6]; Rate 0.05 mg/pot, drug resistant populations): 100% | insecticidal effects against drug resistant Nilaparvata lugens ([6]; imidacloprid-resistant): high insecticidal effects | mortality of larvae against drug resistant populations compared with susceptible populations of Nilaparvata lugens ([6]; imidacloprid-resistant vs susceptible): equivalent mortality of larvae | % Mortality, Test Example7 Frankliniella occidentalis ([2]; foliar treatment, 100 ppm): 50% | % Mortality, Test Example 12 Nilaparvata lugens (Nilaparvata lugens; 0.01 mg/pot): 90% | % Mortality, Test Example 12 Nilaparvata lugens (Nilaparvata lugens; 0.05 mg/pot): 100%

N#Cc1nn(-c2c(Cl)cc(C(F)(F)F)cc2Cl)c(N)c1[S+]([O-])C(F)(F)F (stereo not drawn) [Fipronil]
Insecticidal effects against Laodelphax striatella (mortality of larvae %), Drug resistant populations six days after the treatment ([7]; Rate 0.02 mg/pot): 76% | Insecticidal effects against Laodelphax striatella (mortality of larvae %), Drug resistant populations six days after the treatment ([7]; Rate 0.05 mg/pot): 90% | Insecticidal effects against Laodelphax striatella (mortality of larvae %), Susceptible populations six days after the treatment ([8]; Rate 0.005 mg/pot): 89% | Insecticidal effects against Laodelphax striatella (mortality of larvae %), Susceptible populations six days after the treatment ([8]; Rate 0.01 mg/pot): 100% | Insecticidal effects against Sogatella furcifera (mortality of larvae %), Drug resistant populations six days after the treatment ([9]; Rate 0.01 mg/pot): 40% | Insecticidal effects against Sogatella furcifera (mortality of larvae %), Drug resistant populations six days after the treatment ([9]; Rate 0.05 mg/pot): 90% | Insecticidal effects against Sogatella furcifera (mortality of larvae %), Susceptible populations six days after the treatment ([10]; Rate 0.005 mg/pot): 100% | Insecticidal effects against Sogatella furcifera (mortality of larvae %), Susceptible populations six days after the treatment ([10]; Rate 0.01 mg/pot): 100% | Insecticidal effects against Sogatella furcifera (mortality of larvae %), Susceptible populations six days after the treatment ([10]; Rate 0.01 mg/pot as printed in the last line (below 0.005)): 78%
